Reference: US20040166058A1, “Ethylenedicysteine (EC)-drug conjugates, compositions and methods for tissue specific disease imaging” (Board of Regents, The University of Texas System, priority 2002, published 2004)
Values belong to the molecule of their own block, whether it stands above or below them. Ends that are not written are not given here.

What was measured:
[1] = system: human prostate cancer cells (LNCap, PC-3); assay: In vitro cellular uptake in human prostate cancer cells; type: cell-based; conditions: 4-6 μCi/100,000 cells/well, 0.5-2 hrs, LNCap and PC-3
Description: An in vitro cell culture using tumor cells was incubated with ^99mTc-EC-LHRH (4-6 μCi/100,000 cells/well) at 0.5-2 hrs in human prostate cancer cells. Two types cell lines were used. They are either sensitive to androgen (LNCap) or unresponsive to androgen (PC-3) therapy.

[2] = system: RBA CRL-1747 mammary tumor; assay: Biodistribution in mammary (breast) tumor-bearing rats; type: in vivo; conditions: iv
Description: (§1) Biodistribution was assessed in mammary tumor-bearing rats (RBA CRL-1747, n=3/time interval, iv). Studies were performed 14 to 17 days after implantation when tumors reached approximately 1 cm in diameter. Following administration of the radiotracer, rats were sacrificed at 0.5-4 hrs. The selected tissues were excised, weighed and counted for radioactivity by using a gamma counter (Packard Instruments, Downers Grove, Ill.). The biodistribution of tracer in each sample was calculated as percentage of the injected dose per gram of tissue wet weight (% ID/g).
as §1, with “breast” for “mammary”

[3] = system: RBA CRL-1747 (breast cancer cells); assay: In vitro cellular uptake in breast cancer cells; type: cell-based; conditions: 0.5-2 hrs, 50,000 cells/well
From the text: There was more uptake in ^99mTc-EC-carnitine than ^99mTc-EC (FIG. 16).

[4] = system: mammary tumor; assay: Scintigraphic imaging in mammary (breast) tumor-bearing rats; type: in vivo; conditions: 0.1-4 hrs, 0.1 mCi/rat, iv
Description: Scintigraphic imaging studies was performed in mammary tumor-bearing rats at 0.5-4 hrs (0.3 mCi/rat, n=3, iv). Control group was administered ^99mTc-EC. Computer-outlined region of interest was used to determine tumor uptake (counts/pixel) and tumor/nontumor count density ratios.
Scintigraphic imaging studies was performed in mammary tumor-bearing rats at 0.5-4 hrs (0.3 mCi/rat, n=3, iv). Control group was administered ^99mTc-EC.
Scintigraphic imaging studies was performed in mammary tumor-bearing rats at 0.5-4 hrs (0.1 mCi/rat, n=3, iv). Control group was administered ^99mTc-EC.
Scintigraphic imaging studies was performed in breast tumor-bearing rats at 0.5-4 hrs (0.1 mCi/rat, n=3, iv). Control group was administered ^99mTc-EC.
Scintigraphic imaging studies was performed in breast tumor-bearing rats at 0.1-4 hrs (0.1 mCi/rat, n=3, iv). Control group was administered ^99mTc-EC.

[5] = system: human ovarian cancer cells; conditions: 4-6 μCi/50,000 cells/well, 0.5-2 hrs
[6] = Cell culture uptake of Re-188 versus Tc-99m labeled EC-agents; type: cell-based
Description: To develop EC-DG in a kit form, EC-DG (10 mg) dissolved in 0.2 ml of water was freeze dried with tin chloride (2 mg in 0.2 ml of water) and gluconate (3 mg) in a 10 ml medi-vial and stored at room temperature prior to labeling. During labeling, the freeze dried powder was reconstituted in saline (0.5 ml) and pertechnate (10 mCi) was added. The kit was heated at 55° C. for 30 min (or 75° C. for 15 min). Radiochemical purity of ^99mTc-EC-DG was greater than 95% as determined by radio-TLC (saline, Rf: 0.8)(FIG. 39). A similar method could be applied to other EC-agents such as EC-metronidazole (EC-MN)(FIG. 40) and EC-penciclovir (also known as EC-Guan).

[7] = system: human ovarian and uterine cancer cells; assay: In vitro cellular uptake in human ovarian and uterine cancer cells; type: cell-based; conditions: 4-6 μCi/50,000 cells/well, 0.5-2 hrs
Description: An in vitro cell culture using tumor cells was incubated with ^99mTc-EC-penciclovir (4-6 μCi/50,000 cells/well) at 0.5-2 hrs in human ovarian and uterine cancer cells.

[8] = system: RBA CRL-1747 breast cancer cells; assay: In vitro blocking study of ^99mTc-EC-angiostatin uptake with unlabeled angiostatin; type: cell-based; conditions: unlabeled angiostatin 0-200 μM, 0.5-2 hrs, R^2=0.998; read-out: IC-50 of angiostatin (inhibition of ^99mTc-EC-angiostatin uptake)
Description: The IC-50 of angiostatin was 176 μM (R^2=0.998) (FIG. 3).

Molecule: ^99mTc-EC-LHRH (QHWSYGLRPG; also: 99mTc-ethylenedicysteine (EC) label, attachment site not given here; UniProt P01148 24-33, looked up)
cellular uptake compared to ^99mTc-EC [1]: significant increased uptake

BONE/MUSCLE ([2]; 30 min): 2.419 ± 0.225 | Tumor/Blood ([2]; 30 min): 0.255 ± 0.022 | Tumor/Muscle ([2]; 30 min): 4.375 ± 0.304 | UTERUS/BLOOD ([2]; 30 min): 0.259 ± 0.003 | UTERUS/MUSCLE ([2]; 30 min): 4.471 ± 0.257 | BONE/MUSCLE ([2]; 2 h): 3.058 ± 0.114 | Tumor/Blood ([2]; 2 h): 0.307 ± 0.018 | Tumor/Muscle ([2]; 2 h): 6.876 ± 0.704 | UTERUS/BLOOD ([2]; 2 h): 0.240 ± 0.021 | UTERUS/MUSCLE ([2]; 2 h): 5.442 ± 0.852 | BONE/MUSCLE ([2]; 4 h): 4.314 ± 0.739 | Tumor/Blood ([2]; 4 h): 0.395 ± 0.014 | Tumor/Muscle ([2]; 4 h): 9.715 ± 0.387 | UTERUS/BLOOD ([2]; 4 h): 0.255 ± 0.005 | UTERUS/MUSCLE ([2]; 4 h): 6.278 ± 0.199
Molecule: Cc1ccc(-c2cc(C(F)(F)F)nn2-c2ccc(S(=O)(=O)NC(=O)NCC(=O)NCCNC(=O)C3C[S][99Tc]45(=[O])[S]CC(C(=O)O)[N]4CC[N]35)cc2)cc1 (stereo not drawn) [^99mTc-EC-COX-2]
tumor-to-tissue count density ratios compared to ^99mTc-EC ([2]; 0.5-4 hrs): increased tumor-to-tissue count density ratios as a function of time | Biodistribution BONE & JOINT ([2]; 30 min): 0.324 ± 0.036 % of injected dose per gram of tissue weight | Biodistribution Blood ([2]; 30 min): 2.293 ± 0.038 % of injected dose per gram of tissue weight | Biodistribution Heart ([2]; 30 min): 0.475 ± 0.025 % of injected dose per gram of tissue weight | Biodistribution Intestine ([2]; 30 min): 0.406 ± 0.039 % of injected dose per gram of tissue weight | Biodistribution Kidney ([2]; 30 min): 4.963 ± 0.147 % of injected dose per gram of tissue weight | Biodistribution Liver ([2]; 30 min): 1.556 ± 0.046 % of injected dose per gram of tissue weight | Biodistribution Lung ([2]; 30 min): 1.033 ± 0.035 % of injected dose per gram of tissue weight | Biodistribution Muscle ([2]; 30 min): 0.133 ± 0.007 % of injected dose per gram of tissue weight | Biodistribution Spleen ([2]; 30 min): 0.594 ± 0.298 % of injected dose per gram of tissue weight | Biodistribution Stomach ([2]; 30 min): 0.370 ± 0.010 % of injected dose per gram of tissue weight | Biodistribution Thyroid ([2]; 30 min): 0.784 ± 0.090 % of injected dose per gram of tissue weight | Biodistribution Tumor ([2]; 30 min): 0.587 ± 0.062 % of injected dose per gram of tissue weight | Biodistribution UTERUS ([2]; 30 min): 0.595 ± 0.003 % of injected dose per gram of tissue weight | Biodistribution BONE & JOINT ([2]; 2 h): 0.190 ± 0.003 % of injected dose per gram of tissue weight | Biodistribution Blood ([2]; 2 h): 1.388 ± 0.063 % of injected dose per gram of tissue weight | Biodistribution Heart ([2]; 2 h): 0.283 ± 0.017 % of injected dose per gram of tissue weight | Biodistribution Intestine ([2]; 2 h): 0.276 ± 0.061 % of injected dose per gram of tissue weight | Biodistribution Kidney ([2]; 2 h): 6.088 ± 0.305 % of injected dose per gram of tissue weight | Biodistribution Liver ([2]; 2 h): 1.461 ± 0.049 % of injected dose per gram of tissue weight | Biodistribution Lung ([2]; 2 h): 0.712 ± 0.098 % of injected dose per gram of tissue weight | Biodistribution Muscle ([2]; 2 h): 0.062 ± 0.003 % of injected dose per gram of tissue weight | Biodistribution Spleen ([2]; 2 h): 0.965 ± 0.056 % of injected dose per gram of tissue weight | Biodistribution Stomach ([2]; 2 h): 0.187 ± 0.004 % of injected dose per gram of tissue weight | Biodistribution Thyroid ([2]; 2 h): 0.449 ± 0.015 % of injected dose per gram of tissue weight | Biodistribution Tumor ([2]; 2 h): 0.424 ± 0.019 % of injected dose per gram of tissue weight | Biodistribution UTERUS ([2]; 2 h): 0.334 ± 0.034 % of injected dose per gram of tissue weight | Biodistribution BONE & JOINT ([2]; 4 h): 0.178 ± 0.022 % of injected dose per gram of tissue weight | Biodistribution Blood ([2]; 4 h): 1.031 ± 0.033 % of injected dose per gram of tissue weight | Biodistribution Heart ([2]; 4 h): 0.224 ± 0.004 % of injected dose per gram of tissue weight | Biodistribution Intestine ([2]; 4 h): 0.190 ± 0.006 % of injected dose per gram of tissue weight | Biodistribution Kidney ([2]; 4 h): 6.363 ± 0.260 % of injected dose per gram of tissue weight | Biodistribution Liver ([2]; 4 h): 1.506 ± 0.080 % of injected dose per gram of tissue weight | Biodistribution Lung ([2]; 4 h): 0.500 ± 0.011 % of injected dose per gram of tissue weight | Biodistribution Muscle ([2]; 4 h): 0.002 ± 0.004 % of injected dose per gram of tissue weight | Biodistribution Spleen ([2]; 4 h): 0.981 ± 0.041 % of injected dose per gram of tissue weight | Biodistribution Stomach ([2]; 4 h): 0.139 ± 0.004 % of injected dose per gram of tissue weight | Biodistribution Thyroid ([2]; 4 h): 0.372 ± 0.021 % of injected dose per gram of tissue weight | Biodistribution Tumor ([2]; 4 h): 0.406 ± 0.004 % of injected dose per gram of tissue weight | Biodistribution UTERUS ([2]; 4 h): 0.263 ± 0.005 % of injected dose per gram of tissue weight | cellular uptake compared to ^99mTc-EC [3]: significant increase in uptake

Molecule: C[N+](C)(C)CCCCC(NC(=O)C1C[S][99Tc]23(=[O])[S]CC(C(=O)NC(CCCC[N+](C)(C)C)C(=O)[O-])[N]2CC[N]13)C(=O)[O-] (stereo not drawn) [^99mTc-EC-carnitine]
count density ratios tumor/muscle and heart/muscle [4]: High count density ratios | cellular uptake compared to ^99mTc-EC [3]: more uptake

Molecule: CN(C)c1ncnc2c1ncn2C1OC(CO)C(NC(=O)C2C[S][99Tc]34(=[O])[S]CC(C(=O)O)[N]3CC[N]24)C1O (stereo not drawn) [^99mTc-EC-adenosine]
cellular uptake compared to ^99mTc-EC [5]: significant increased uptake

Molecule: Nc1nc2c(ncn2CCC(CO)CNC(=O)[C@H](CS)NCCN[C@@H](CS)C(=O)NCC(CO)CCn2cnc3c(=O)[nH]c(N)nc32)c(=O)[nH]1 (stereo partly drawn) [EC-Guan]
uptakes of Re-188 versus Tc-99m labeled agent [6]: no marked difference between uptakes

Molecule: Nc1nc2c(ncn2CCC(CO)CNC(=O)C2C[S][99Tc]34(=[O])[S]CC(C(=O)NCC(CO)CCn5cnc6c(=O)[nH]c(N)nc65)[N]3CC[N]24)c(=O)[nH]1 (stereo not drawn) [^99mTc-EC-penciclovir]
cellular uptake compared to ^99mTc-EC [7]: significant increased uptake

IC50 [8]: 176 µM
Molecule: angiostatin
